Source: publication PMC3009740 (PLoS ONE, 2010)
Numbering of substitutions follows the chain as printed. Where two headings read alike, the source gives them in different places.

What was measured:
[1] = target: T1, rat M1 wild-type muscarinic acetylcholine receptor (Rattus norvegicus, UniProt P08482)
T1 sequence (P08482 1-460): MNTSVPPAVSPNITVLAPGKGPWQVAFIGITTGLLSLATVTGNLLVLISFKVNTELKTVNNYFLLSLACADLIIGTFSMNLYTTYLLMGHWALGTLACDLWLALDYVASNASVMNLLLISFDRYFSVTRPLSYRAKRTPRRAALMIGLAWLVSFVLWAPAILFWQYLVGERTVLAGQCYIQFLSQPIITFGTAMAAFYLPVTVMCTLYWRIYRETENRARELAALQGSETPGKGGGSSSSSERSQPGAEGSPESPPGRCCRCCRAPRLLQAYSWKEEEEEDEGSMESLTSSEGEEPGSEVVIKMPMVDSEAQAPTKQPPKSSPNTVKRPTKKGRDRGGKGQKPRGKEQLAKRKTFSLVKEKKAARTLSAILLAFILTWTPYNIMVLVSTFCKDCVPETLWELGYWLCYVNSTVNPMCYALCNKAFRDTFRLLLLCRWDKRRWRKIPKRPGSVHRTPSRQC

[2] = target: T1, rat M1 wild-type muscarinic acetylcholine receptor; conditions: naïve CHO rM1 cells
Method: (§1) Labeled cells were harvested by trypsinization, centrifuged, and washed three times in HEPES buffer to remove unincorporated myo-[^3H]inositol. Labeled cells were distributed to assay tubes (500,000 cells/tube), and allowed to incubate for 15 min at 37°C. […] In all cases, the reaction was allowed to proceed in the presence of 10 mM LiCl for 1 h at 37°C after the addition of agonist before being stopped with chloroform/methanol (2∶1) and centrifuged (450×g; 15 min).
(§2) For all experiments, [^14C]inositol-1-phosphate was added to each sample as an internal recovery standard. Total inositol phosphates were separated by ion exchange chromatography (AG1-X8 resin). The amount of radioactivity (disintegrations per minute) in each sample was determined by liquid scintillation spectrometry and adjusted for ^14C recovery.
(§3) In functional assays of PI hydrolysis, raw data were corrected for ^14C recovery to account for individual column differences in efficiency. Individual concentration-response curve data were fitted to a four-parameter logistic function using Prism to obtain estimates of EC50 (half-effective concentration) and Emax.

[3] = target: T2, rat M1 mutant^123 muscarinic acetylcholine receptor (Rattus norvegicus, UniProt P08482); conditions: mutant^123 cells stimulated with agonist (data not shown)
T2 sequence (P08482 1-460): T1 sequence (P08482 1-460)
Method: as §1, §2, §3

[4] = target: T1, rat M1 wild-type muscarinic acetylcholine receptor; conditions: washout, control 2200±90
[5] = test system: CHO hM1 cells; test: Protein content (method of Bradford) of CHO hM1 cells after pretreatment; format: cell-based, Chinese hamster
Text: In order to account for these variances, the method of Bradford was used to quantify changes in protein content in CHO hM1 cells. […] This is in contrast to the complete inhibition of binding observed prior to prolonged waiting.

[6] = target: T2, rat M1 mutant^123 muscarinic acetylcholine receptor; conditions: washout, control 2700±300
[7] = target: T2, rat M1 mutant^123 muscarinic acetylcholine receptor
[8] = target: T3, human M1 muscarinic acetylcholine receptor (Homo sapiens, UniProt P11229); test: cell-based
T3 sequence (P11229 1-460): T1 sequence (P08482 1-460) with V5A, S254T, S309P, K320R, G337A, V413I
Method: as §1
Alternatively, cells were grown in 24-well plates and loaded with myo-[^3H]inositol as described above. […] In all cases, the reaction was stopped with 0.3 M HClO4, neutralized with 0.15 M K2CO3, and samples were centrifuged (1500×g; 15 min).
as §2, §3

[9] = 1 h pretreatment, washout, 23 h wait

**Q.** How did the “Imax, maximal percentage inhibition of [3H]NMS binding” value (“Imax, maximal percentage inhibition” below) ([1]; 1 h pretreatment, washout) turn out when `CCCCCCOc1nsnc1C1=CCCN(C)C1` [xanomeline, 3-[3-hexyloxy-1,2,5-thiadiazo-4-yl]-1,2,5,6-tetrahydro-1-methylpyridine] was run?
**A.** The value was 95±0.5%.

**Q.** What about the “Imax, maximal percentage inhibition” value [1, 9] of the same molecule?
**A.** The value was 99±2.3%.

**Q.** What about the “percentage of high-affinity binding sites” value [1, 9] of the same molecule?
**A.** The value was 74±1.1%.

**Q.** And the “Imax, maximal percentage inhibition” value ([1]; 24 h pretreatment, washout)?
**A.** Its value is 97±0.5%.

**Q.** What about the “percentage of high-affinity binding sites” value ([1]; 24 h pretreatment, washout) of the same molecule?
**A.** The value was 47±7.7%.

**Q.** And the “Imax, maximal percentage inhibition” value ([1]; Control: naïve cells)?
**A.** The value was 99±0.6%.

**Q.** What about the “Emax, maximal response” value [2] of the same molecule?
**A.** Its value is 18000±5500 dpm.

**Q.** And the PI response [3]?
**A.** The PI response was “did not produce a significant PI response”.

**Q.** And the “Bmax, maximal cell-surface receptor density” value ([4]; 3 µM xanomeline 1 h, 23 h wait)?
**A.** The value was 1100±150 dpm/100,000 cells.

**Q.** What about the “Bmax, maximal cell-surface receptor density” value ([4]; 3 µM xanomeline 1 h) of the same molecule?
**A.** The value was 2600±430 dpm/100,000 cells.

**Q.** What about the “Bmax, maximal cell-surface receptor density” value ([4]; 3 µM xanomeline 24 h) of the same molecule?
**A.** Its value is 1300±150 dpm/100,000 cells.

**Q.** What about the “maximal decrease in protein content” value ([5]; 1-h pretreatment followed by washing and prolonged waiting, at 10 µM xanomeline) of the same molecule?
**A.** The value was 32±2%.

**Q.** What about the “maximal decrease in protein content” value ([5]; 24-h pretreatment, at 10 µM xanomeline) of the same molecule?
**A.** Its value is 65±7%.

**Q.** And the “Bmax, maximal cell-surface receptor density” value ([6]; 3 µM xanomeline 1 h, 23 h wait)?
**A.** Its value is 3400±610 dpm/100,000 cells.

**Q.** And the “Bmax, maximal cell-surface receptor density” value ([6]; 3 µM xanomeline 1 h)?
**A.** Its value is 3000±380 dpm/100,000 cells.

**Q.** What about the “Bmax, maximal cell-surface receptor density” value ([6]; 3 µM xanomeline 24 h) of the same molecule?
**A.** The value was 3600±320 dpm/100,000 cells.

**Q.** What about the “Imax, maximal percentage inhibition” value ([7]; 1 h pretreatment, washout) of the same molecule?
**A.** The value was 96±0.7%.

**Q.** What about the “Imax, maximal percentage inhibition” value [7, 9] of the same molecule?
**A.** Its value is 60±7.4 %.

**Q.** And the “Imax, maximal percentage inhibition” value ([7]; 24 h pretreatment, washout)?
**A.** Its value is 90±2.9%.

**Q.** What about the “Imax, maximal percentage inhibition” value ([7]; Control: naïve cells) of the same molecule?
**A.** The value was 99±0.5%.

**Q.** With `O=C1CCCN1CC#CCN1CCCC1` [oxotremorine] as the molecule, how does the “Emax, maximal accumulation of inositol phosphates” value [8] read?
**A.** Its value is 10000±800 dpm.

**Q.** And the “increase in the EC50 of agonist-stimulated PI hydrolysis” value [8]?
**A.** Its value is 32 fold.

**Q.** And the EC50 ([8]; pEC50 of PI hydrolysis)?
**A.** The EC50 was 200 nM.

**Q.** For `C[N+](C)(C)CCOC(N)=O` [carbachol], which “maximal decrease in protein content” value ([5]; 24-h pretreatment, at 10 mM carbachol) is on record?
**A.** Its value is 26±6.6%.
